Paper PMC9175492 (Molecular pharmaceutics, 2022)
Numbered stars: 1 amine (or outer) side, 2 acyl side, 3 side chain; on linkers, the order of the positions; unused ones are H or OH. Bridge positions count the residues as written; N and C are the ends. Square brackets hold non-standard residues; d marks the D form. Peptide text beside a SMILES is read from it. I, II: the chains in the order shown. X2 = NC(=O)[C@H](CCCCNC(=O)COCCOCCN[*:1])N[*:2]; 2Nal = N[C@@H](Cc1ccc2ccccc2c1)C(=O)O; Bta = N[C@@H](Cc1csc2ccccc12)C(=O)O

Experiments:
[1] = test system: intracellular Keap1-Nrf2 interaction, ARE reporter-HepG2 cells; assay: ARE luciferase reporter assay; assay type: cell-based; settings: 18 h, 0% FBS, n = 5; for Increase of luciferase activity: 0.31 μM; for Maximal induction of luciferase expression: highest concentration tested (5 μM)
[2] = ratio of cytosolic versus extracellular concentration; cited from earlier work
HeLa cells [3] = assay: MTT cell viability assay; assay type: cell-based, human; settings: 72 h, DMEM 10% FBS
HeLa cells [4] = assay: Apparent endosomal escape efficiency; assay type: cell-based, human; settings: reference line, 10% or 1% FBS; defined as 100%
[5] = test system: HeLa (human cervical cancer) cells; settings: 10% fetal bovine serum; cited from earlier work

Compound: CC(C)C[C@@H]1NC(=O)[C@H](Cc2ccccc2)NC(=O)[C@H](CCC(=O)O)NC(=O)CNC(=O)[C@H]([C@@H](C)O)NC(=O)[C@H](CCC(=O)O)NC(=O)[C@@H]2CCCN2C(=O)[C@H](CC(=O)O)NC(=O)[C@H](CC(C)C)NC(=O)[C@H](CCC(=O)NCCOCCOCC(=O)NCCCC[C@H](NC(=O)CC[C@@H]2NC(=O)[C@@H](CCCNC(=N)N)NC(=O)[C@H](CCCNC(=N)N)NC(=O)[C@@H](CCCNC(=N)N)NC(=O)[C@H](CCCNC(=N)N)NC(=O)[C@H](Cc3ccc4ccccc4c3)NC(=O)[C@@H](Cc3ccccc3)NC(=O)[C@H](Cc3ccccc3)NC2=O)C(N)=O)NC(=O)CNC1=O [CPP12-P1] (I: cyclo(FLGELDPETGE) / II: cyclo(F[dF][2Nal]R[dR]R[dR]E); linker I:4-II:8 via X2)
- Increase of luciferase activity [1]: did not have significant effect
- Maximal induction of luciferase expression [1]: three- to four-fold

Compound: CC(C)C[C@@H]1NC(=O)[C@H](Cc2ccccc2)NC(=O)[C@H](CCC(=O)O)NC(=O)CNC(=O)[C@H]([C@@H](C)O)NC(=O)[C@H](CCC(=O)O)NC(=O)[C@@H]2CCCN2C(=O)[C@H](CC(=O)O)NC(=O)[C@H](CC(C)C)NC(=O)[C@H](CCC(=O)NCCOCCOCC(=O)NCCCC[C@H](NC(=O)CC[C@@H]2NC(=O)[C@@H](CCCNC(=N)N)NC(=O)[C@H](CCCNC(=N)N)NC(=O)[C@@H](CCCNC(=N)N)NC(=O)[C@H](CCCNC(=N)N)NC(=O)[C@H](Cc3csc4ccccc34)NC(=O)[C@@H](Cc3ccccc3)NC(=O)[C@H](Cc3ccccc3)NC2=O)C(N)=O)NC(=O)CNC1=O [CPP12-2-P1] (I: cyclo(FLGELDPETGE) / II: cyclo(F[dF][Bta]R[dR]R[dR]E); linker I:4-II:8 via X2)
- Increase of luciferase activity [1]: ~ 2 fold
- Maximal induction of luciferase expression [1]: three- to four-fold

Compound: N=C(N)NCCC[C@@H]1NC(=O)[C@H](Cc2ccc3ccccc3c2)NC(=O)[C@@H](Cc2ccccc2)NC(=O)[C@H](Cc2ccccc2)NC(=O)[C@H](CCC(N)=O)NC(=O)[C@@H](CCCNC(=N)N)NC(=O)[C@H](CCCNC(=N)N)NC(=O)[C@@H](CCCNC(=N)N)NC1=O [CPP12, cyclo(Phe-D-Phe-Nal-Arg-D-Arg-Arg-D-Arg-Gln)] (cyclo([2Nal]R[dR]R[dR]QF[dF]))
- Cytosolic entry efficiency [2]: 120%
- Loss of viability of HeLa cells (MTT) (HeLa cells [3]; at ⩾550 μM concentration (so in the source)): ~ 40%
- Viability of HeLa cells (MTT) (HeLa cells [3]; up to 25 μM): did not reduce the viability
- Apparent Endosomal Escape Efficiency (γ, %) (HeLa cells [4]): 100%
- Decrease of cytosolic entry efficiency in the presence of 10% FBS [5]: 25 fold

Compound: CC(C)C[C@@H]1NC(=O)[C@H](Cc2ccccc2)NC(=O)[C@H](CCC(=O)O)NC(=O)CNC(=O)[C@H]([C@@H](C)O)NC(=O)[C@H](CCC(=O)O)NC(=O)[C@@H]2CCCN2C(=O)[C@H](CC(=O)O)NC(=O)[C@H](CC(C)C)NC(=O)[C@H](CCC(N)=O)NC(=O)CNC1=O [Peptide P1]
- Increase in luciferase activity ([1]; up to 5 μM): did not result in significant increase
